Earlier results as cited in patent US20060057174A1, “Natural-non-toxic insect repellant” (priority 2004, published 2006).

Tested on: Aedes aegypti
Conditions: ingredients of Skin-So-Soft bath oil

Row | Compound | repellent to Aedes aegypti
1 | CC(C)OC(=O)CCCCC(=O)OC(C)C [diisopropyl adipate] | repellent
2 | O=C(c1ccccc1)c1ccccc1 [benzophenone] | repellent
